Source: PubChem BioAssay (NCI)
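Five compound concentrations were applied to cells in 96-well plates for 48 hours; endpoints were derived by simple linear interpolation of the resulting dose-response curve. Abbreviation: GI50, concentration required for 50% inhibition of growth. At the TGI there is no net growth.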

How the values were obtained:
Experiment in all cases: NCI anticancer screen, dose series, 48 h
SF-295 CNS = test system: SF-295 CNS
RXF 393 renal = test system: RXF 393 renal
IGROV1 ovarian = test system: IGROV1 ovarian
SF-268 CNS = test system: SF-268 CNS
HS 578T breast = test system: HS 578T breast
OVCAR-3 ovarian = test system: OVCAR-3 ovarian
MALME-3M melanoma = test system: MALME-3M melanoma
K-562 leukemia = test system: K-562 leukemia
DU-145 prostate = test system: DU-145 prostate
SF-539 CNS = test system: SF-539 CNS

| Structure (SMILES) | GI50 (SF-295 CNS) [µM] | TGI (SF-295 CNS) [µM] | GI50 (RXF 393 renal) [µM] | TGI (RXF 393 renal) [µM] | GI50 (IGROV1 ovarian) [µM] | TGI (IGROV1 ovarian) [µM] | GI50 (SF-268 CNS) [µM] | TGI (SF-268 CNS) [µM] | GI50 (HS 578T breast) [µM] | TGI (HS 578T breast) [µM] | GI50 (OVCAR-3 ovarian) [µM] | TGI (OVCAR-3 ovarian) [µM] | GI50 (MALME-3M melanoma) [µM] | TGI (MALME-3M melanoma) [µM] | GI50 (K-562 leukemia) [µM] | TGI (K-562 leukemia) [µM] | GI50 (DU-145 prostate) [µM] | TGI (DU-145 prostate) [µM] | GI50 (SF-539 CNS) [µM] | TGI (SF-539 CNS) [µM] |
| --- | --- | --- | --- | --- | --- | --- | --- | --- | --- | --- | --- | --- | --- | --- | --- | --- | --- | --- | --- | --- |
| COc1cc(N2C(=O)[C@H](c3ccccc3)C2c2ccc(SC)cc2)cc(OC)c1OC (stereo partly drawn) | 0.0352 | 6.94 | 0.038 | > 100 | 0.0432 | > 100 | 0.0485 | > 100 | 0.0653 | > 100 | 0.0265 | 0.0667 | > 100 | > 100 | 0.037 | > 100 | 0.0373 | > 100 | 0.0255 | 0.0697 |
| CN(C)CCCSc1ccccc1NC1=C(Cl)C(=O)C(Nc2ccccc2SCCCN(C)C)=C(Cl)C1=O | 1.96 | 3.82 | 1.92 | 3.35 | 1.39 | 3.44 | 1.93 | 4.48 | 3.14 | 21.4 | 1.53 | 2.89 | 1.85 | 3.6 | 2.08 | 5.92 | 1.76 | 3.23 | 1.68 | 3.1 |
| CCOC(=O)C1=C(C)NC(=O)NC1CN1C(=O)c2ccccc2C1=O (stereo not drawn) | > 100 | > 100 | > 100 | > 100 | > 100 | > 100 | > 100 | > 100 | > 100 | > 100 | > 100 | > 100 | > 100 | > 100 | > 100 | > 100 | > 100 | > 100 | > 100 | > 100 |
| CC1(C)N=C(N)N=C(N)N1c1ccc(Cl)cc1 | 2.9 | 9.94 | 8.09 | > 100 | 2.27 | > 100 | 0.688 | > 100 | > 100 | > 100 | 11.3 | > 100 | 16.1 | > 100 | 1.3 | > 100 | 5.35 | > 100 | 1.94 | > 100 |
| C=CC(=O)N1C[C@@H]2CCOc3c(Cl)c(-c4c(O)cccc4F)c(F)c4ncnc(c34)N2C[C@H]1C | 15.6 | 32.5 | 2.15 | 15.1 | 17.4 | 46.6 | 12.5 | 29.1 | 16.5 | 89.2 | 6.11 | 18.5 | 10.8 | 23.8 | 8.72 | > 100 | 10.5 | 22.3 | 12.9 | 25.8 |
| C=C1C(=O)O[C@H]2[C@H](OC(C)=O)[C@@H](C)CCCC3(C)OC3CCC3(CO3)[C@H](O)C[C@@H]12 (stereo partly drawn) | 11.4 | 28.3 | 12.4 | > 100 | 13.9 | 38.7 | 15.2 | 40.4 | 11.8 | 43.4 | 3.62 | 18.1 | 6.01 | 21.6 | – | – | 3.92 | 14.3 | 15.4 | 37.1 |
